From ChEMBL document CHEMBL5303304, “EUbOPEN Chemogenomics Library - IncuCyte” (2023)

How the values were obtained:
Assay type in all cases: toxicity, cell-based
U2OS = test: Incucyte cell viability with U2OS; conditions: human, 10 µM, compound concentration 10 uM
HEK-293T = test: Incucyte cell viability with HEK293T; conditions: human, 10 µM, compound concentration 10 uM
Fibroblast = test: Incucyte cell viability with human fibroblast; conditions: 10 µM, compound concentration 10 uM
Note: unitless GR value; below 1 slowed growth and below 0 cell loss.

Compound | Growth Rate (U2OS; 0 h, replicate number 1) | Growth Rate (U2OS; 6 h, replicate number 1) | Growth Rate (U2OS; 12 h, replicate number 1) | Growth Rate (U2OS; 18 h, replicate number 1) | Growth Rate (U2OS; 24 h, replicate number 1) | Growth Rate (HEK-293T; 6 h, replicate number 1) | Growth Rate (HEK-293T; 12 h, replicate number 1) | Growth Rate (HEK-293T; 18 h, replicate number 1) | Growth Rate (Fibroblast; 6 h, replicate number 2) | Growth Rate (Fibroblast; 12 h, replicate number 2) | Growth Rate (Fibroblast; 18 h, replicate number 1) | Growth Rate (Fibroblast; 18 h, replicate number 2) | Growth Rate (Fibroblast; 24 h, replicate number 2) | Growth Rate (U2OS; 12 h, replicate number 2) | Growth Rate (U2OS; 18 h, replicate number 2) | Growth Rate (U2OS; 24 h, replicate number 2) | Growth Rate (HEK-293T; 0 h, replicate number 2) | Growth Rate (HEK-293T; 24 h, replicate number 1) | Growth Rate (Fibroblast; 6 h, replicate number 1) | Growth Rate (Fibroblast; 12 h, replicate number 1) | further results
CN(CC(=O)Nc1ccc(F)c(F)c1F)C(=O)c1ccc2c(c1)OCCO2 | -0.71 | 0.07 | 0.45 | 0.76 | 0.95 | 0.37 | 0.74 | 0.93 | 0.54 | 0.55 | 0.79 | 0.78 | 0.87 |  |  |  |  |  |  |  | 
CC(C)Oc1ccc(-c2cnc3c(-c4ccnc5ccccc45)cnn3c2)cc1 | -0.36 |  |  |  |  | -0.63 | -0.46 | -0.07 |  |  | 0.49 |  |  | 0.74 | 0.79 | 0.97 | 0.99 | 0.3 | 0.72 | -1 | Growth Rate (U2OS; 6 h, replicate number 2): 0.23; Growth Rate (Fibroblast; 0 h, replicate number 2): -0.98
O=S(=O)(Nc1ccc(C(O)(C(F)(F)F)C(F)(F)F)cc1)c1cccs1 | -0.75 | 0.58 | 0.46 | 0.7 | 0.8 | 0.89 |  | 0.88 | 0.87 |  | 0.89 | 0.93 | 0.87 |  |  |  |  | 0.87 |  | 0.76 | Growth Rate (U2OS; 0 h, replicate number 2): 0.65; Growth Rate (HEK-293T; 12 h, replicate number 2): 0.89; Growth Rate (HEK-293T; 24 h, replicate number 2): 0.9; Growth Rate (Fibroblast; 0 h, replicate number 2): 0.56
CN(C)C/C=C/C(=O)Nc1cccc(C(=O)Nc2ccc(Nc3nccc(-c4cccnc4)n3)cc2)c1 | -0.34 |  | 0.85 | 0.46 | 0.27 | -0.88 | -0.9 | -0.74 | 0.47 | -0.34 |  | -0.31 | -0.26 | 0.74 | 0.42 | 0.13 | 0.56 | -0.55 | -1 |  | Growth Rate (HEK-293T; 6 h, replicate number 2): -0.56; Growth Rate (HEK-293T; 12 h, replicate number 2): -0.52; Growth Rate (HEK-293T; 18 h, replicate number 2): -0.44; Growth Rate (HEK-293T; 24 h, replicate number 2): -0.37; Growth Rate (Fibroblast; 0 h, replicate number 2): 0.35
C/C=C1\C(=O)CC2C3CCC4=CC(=O)CC[C@]4(C)C3CC[C@]12C (some centres not stated) | 0.15 | 0.52 | 0.73 | 0.92 |  | 0.43 | 0.69 | 0.83 | 0.33 | 0.88 | 0.64 | 0.96 | 0.9 |  |  |  |  | 0.84 | -0.19 | 0.83 | Growth Rate (HEK-293T; 6 h, replicate number 2): 0.44; Growth Rate (HEK-293T; 12 h, replicate number 2): 0.92; Growth Rate (Fibroblast; 24 h, replicate number 1): 0.81
C=CC(=O)Nc1cccc(C)c1Nc1ncc2cc(-c3c(Cl)c(OC)cc(OC)c3Cl)ccc2n1 | -0.45 | 0.45 | 0.25 | 0.32 | 0.38 | -0.39 | -0.35 | -0.32 | -0.2 | 0.44 | 0.03 | 0.44 | 0.33 | 0.5 | 0.42 | 0.4 |  | -0.21 | -0.64 | 0.12 | Growth Rate (U2OS; 0 h, replicate number 2): 0.38; Growth Rate (U2OS; 6 h, replicate number 2): 0.31; Growth Rate (HEK-293T; 6 h, replicate number 2): -0.56; Growth Rate (HEK-293T; 12 h, replicate number 2): -0.45; Growth Rate (HEK-293T; 18 h, replicate number 2): -0.41; Growth Rate (HEK-293T; 24 h, replicate number 2): -0.26; Growth Rate (Fibroblast; 24 h, replicate number 1): 0.05
CCOC(=O)c1ccc(N2C(=O)C(O)=C(C(=O)c3ccc(OC)cc3)C2c2ccc(F)cc2)cc1 (configuration not stated) | 0.54 |  |  | 0.96 |  | 0.75 |  |  |  |  | -0.29 |  |  | 0.89 | 1 | 0.74 | 0.85 |  | 0.14 | -1 | Growth Rate (U2OS; 0 h, replicate number 2): 0.5; Growth Rate (U2OS; 6 h, replicate number 2): 0.87; Growth Rate (HEK-293T; 18 h, replicate number 2): 0.83; Growth Rate (HEK-293T; 24 h, replicate number 2): 0.85; Growth Rate (Fibroblast; 0 h, replicate number 2): -0.75
CC[C@](C)(O)C#Cc1cc2c(ccn2-c2cc(OC)nc(N)n2)cn1 |  |  |  |  |  | -0.14 | 0.4 | 0.76 |  |  | 0.63 |  | 0.83 |  |  |  | 0.37 | 0.84 | -0.12 | -1 | Growth Rate (U2OS; 0 h, replicate number 2): -0.28; Growth Rate (HEK-293T; 6 h, replicate number 2): 0.55; Growth Rate (Fibroblast; 0 h, replicate number 1): -0.3
